From patent publication US7128926B2, “Ester compound and use thereof” (Incorporated Administrative Agency, National Agriculture …, priority 2002, dated 2006)

System: adult males of Pseudococcus cryptus
Experiment: Biological assay of attracting activity using Petri dish (Table 1)
Type: in vivo
Experimental: Biological Assay of Attracting Activity Using Petri Dish […] First, two square filter papers with an area of 1 cm^2 were placed on a Petri dish with a diameter of 90 mm. Thereafter, one paper was impregnated with each of sample solutions (shown in Tables 1 and 2) (100 μl of a stock solution in the case of each fraction shown in Table 1 and a crude extract shown in Table 2, and 10 μl of a stock solution in the case of an acetylated product shown in Table 2), and it was defined as a treated group. The other paper was impregnated with only a solvent (100 μl), and it was defined as a control group. […] The Petri dish was then capped. Approximately 10 to 60 minutes later, when the movement of the males stopped, the presence or absence of attracting activity was confirmed from the ratio of males attracted to each filter paper.

SMILES: C=C(C)CC(=O)OCC1CC(C(=C)C)C1(C)C (stereo not shown) [formula (I), 3-isopropenyl-2,2-dimethylcyclobutylmethyl 3-methyl-3-butenoate]
- attracting activity towards adult males of Pseudococcus cryptus (in words): activity of attracting adult males of Pseudococcus cryptus
